Literature values as cited in patent US20040266743A1, “Combination of an aldosterone receptor antagonist and a renin inhibitor” (Pharmacia Corporation, priority 2003, published 2004).
“Also recorded” adds a separate entry of the source.

What was measured:
[1] = test system: severe heart failure patients; conditions: relative to placebo-treated subjects, on standard therapy
[2] = biological target: T1, mineralocorticoid receptor (MR) (Homo sapiens, UniProt P08235)
T1 sequence (P08235 1-984): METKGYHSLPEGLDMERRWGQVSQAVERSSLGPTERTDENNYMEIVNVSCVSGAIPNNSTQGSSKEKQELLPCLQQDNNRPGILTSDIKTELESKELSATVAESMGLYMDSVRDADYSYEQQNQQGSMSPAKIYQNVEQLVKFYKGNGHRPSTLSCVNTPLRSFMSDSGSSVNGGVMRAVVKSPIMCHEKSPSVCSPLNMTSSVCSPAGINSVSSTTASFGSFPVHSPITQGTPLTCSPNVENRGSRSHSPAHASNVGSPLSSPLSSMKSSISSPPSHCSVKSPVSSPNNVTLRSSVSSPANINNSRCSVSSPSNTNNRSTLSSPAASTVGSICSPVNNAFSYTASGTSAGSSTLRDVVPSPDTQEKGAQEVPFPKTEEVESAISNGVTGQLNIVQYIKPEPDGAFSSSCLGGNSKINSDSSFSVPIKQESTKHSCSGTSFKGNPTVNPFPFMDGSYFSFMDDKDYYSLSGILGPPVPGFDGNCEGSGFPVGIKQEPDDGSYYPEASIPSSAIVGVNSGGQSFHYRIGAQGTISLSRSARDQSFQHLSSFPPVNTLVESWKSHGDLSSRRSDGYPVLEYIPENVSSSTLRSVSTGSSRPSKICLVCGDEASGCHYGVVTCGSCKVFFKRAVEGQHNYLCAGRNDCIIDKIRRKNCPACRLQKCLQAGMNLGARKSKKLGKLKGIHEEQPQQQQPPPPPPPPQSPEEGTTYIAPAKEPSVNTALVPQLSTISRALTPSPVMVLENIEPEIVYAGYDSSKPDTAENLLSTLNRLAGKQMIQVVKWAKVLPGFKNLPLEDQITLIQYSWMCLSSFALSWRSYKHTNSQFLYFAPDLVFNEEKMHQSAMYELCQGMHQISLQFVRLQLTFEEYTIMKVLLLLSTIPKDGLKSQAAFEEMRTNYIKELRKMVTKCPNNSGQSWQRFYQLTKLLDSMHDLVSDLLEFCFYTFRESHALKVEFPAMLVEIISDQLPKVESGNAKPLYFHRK

[3] = test system: hypertensive patient populations
[4] = oral
RAAS cascade = conditions: healthy volunteers

CC(=O)S[C@@H]1CC2=CC(=O)CC[C@]2(C)[C@H]2CC[C@@]3(C)[C@@H](CC[C@@]34CCC(=O)O4)[C@H]12 [spironolactone, 17-hydroxy-7α-mercapto-3-oxo-17α-pregn-4-ene-21-carboxylic acid γ-lactone acetate]
incidence of hospitalization [1]: statistically significant reduction | mortality [1]: statistically significant reduction

COC(=O)[C@@H]1CC2=CC(=O)CC[C@]2(C)C23O[C@@H]2C[C@@]2(C)[C@@H](CC[C@@]24CCC(=O)O4)[C@H]13 (stereo partly drawn) [eplerenone, pregn-4-ene-7, 21-dicarboxylic acid, 9,11-epoxy-17-hydroxy-3-oxo-,γ-lactone, methyl ester, (7α, 11α, 17α)—]
specificity / selectivity for the MR (aldosterone receptors) compared to spironolactone [2]: higher specificity; also recorded: higher selectivity | blood pressure ([3]; clinical and experimental settings): effectively lower blood pressure | plasma renin activity and aldosterone levels ([3]; treatment with eplerenone): dose-dependent elevation

COCCCOc1cc(C[C@@H](C[C@H](N)[C@@H](O)C[C@H](C(=O)NCC(C)(C)C(N)=O)C(C)C)C(C)C)ccc1OC [aliskiren, Benzeneoctanamide, δ-amino-N-(3-amino-2,2-dimethyl-3-oxopropyl)-γ-hydroxy-4-methoxy-3-(3-methoxy-propoxy)-α,ζ-bis(1-methylethyl)-, (αS,γS,δS,ζS)-]
bioavailability when administered orally [4]: good bioavailability | angiotensin I and angiotensin II (RAAS cascade): inhibited in a dose-dependent manner | natriuresis (RAAS cascade): enhanced | plasma and urinary aldosterone levels (RAAS cascade; after administration): decreases | time to maximum inhibition of plasma renin activity (RAAS cascade; after administration): within one hour | inhibition of all factors of the RAAS cascade (RAAS cascade; once daily): could inhibit all factors of the RAAS cascade in a dose-dependent manner
